This passage reports MIC results from ChEMBL document CHEMBL1124865, “Synthesis and biological evaluation of a series of parenteral 3'-quaternary ammonium cephalosporins” (J Med Chem, 1990).

Converted amounts (≈) assume the structure as drawn.

What all share (type): functional
The test system of assay [1] is Klebsiella pneumoniae. Description: microbe, parasite or virus in culture. The settings on record: Klebsiella pneumoniae; read-out: MIC.
Description: Antibacterial activity against Klebsiella pneumoniae 1082E
The subject of assay [2] is Enterobacter cloacae. Description: Antibacterial activity against Enterobacter cloacae EB5. The settings on record: Enterobacter cloacae; read-out: MIC.
The test system of assay [3] is Escherichia coli. Description: Antibacterial activity against Escherichia coli TEM. Particulars: Escherichia coli; read-out: MIC.
For assay [4], the system named is Staphylococcus aureus. Description: Antibacterial activity against penicillin G susceptible Staphylococcus aureus. The settings on record: Staphylococcus aureus; read-out: MIC.
For assay [5], the system named is Escherichia coli. Description: Antibacterial activity against Escherichia coli EC14. The settings on record: Escherichia coli; read-out: MIC.
In the next assay the test system is Streptococcus pneumoniae. Description: Antibacterial activity against Streptococcus pneumoniae. Particulars: Streptococcus pneumoniae; read-out: MIC.
Assay [6] has as its system Enterobacter cloacae. Description: Antibacterial activity against Enterobacter cloacae 265A. Particulars: Enterobacter cloacae; read-out: MIC.
For another assay, the system named is Streptococcus pyogenes. Description: Antibacterial activity against Streptococcus pyogenes. The settings on record: Streptococcus pyogenes; read-out: MIC.
Assay [7] deals with Pseudomonas aeruginosa. Description: Antibacterial activity against Pseudomonas aeruginosa PS18. Particulars: Pseudomonas aeruginosa; read-out: MIC.
Assay [8] deals with Staphylococcus aureus. Description: Antibacterial activity against penicillin G resistance Staphylococcus aureus. Particulars: Staphylococcus aureus; read-out: MIC.
Assay [9] concerns Klebsiella pneumoniae. Description: Antibacterial activity against Klebsiella pneumoniae X26. The settings on record: Klebsiella pneumoniae; read-out: MIC.
The next assay concerns Enterococcus faecium. Description: Antibacterial activity against Enterococcus faecium. The settings on record: Enterococcus faecium; read-out: MIC.
Assay [10] has as its system Pseudomonas aeruginosa. Description: Antibacterial activity against Pseudomonas aeruginosa X528. The settings on record: Pseudomonas aeruginosa; read-out: MIC.
Another assay relates to Serratia marcescens. Description: Antibacterial activity against Serratia marcescens SE3. The settings on record: Serratia marcescens; read-out: MIC.

For the compound `CO/N=C(\C(=O)N[C@@H]1C(=O)N2C(C(=O)[O-])=C(C[n+]3cscc3C)CS[C@H]12)c1csc(N)n1`, the MIC in the assay on Klebsiella pneumoniae [1] stood at 8 µg/mL (≈ 16.2 µM); with Enterobacter cloacae [2] it was 0.25 µg/mL (≈ 0.505 µM); in the assay on Escherichia coli [3], 0.06 µg/mL (≈ 0.121 µM); with Staphylococcus aureus [4], 2 µg/mL (≈ 4.04 µM); in the assay with Escherichia coli [5] it was 0.06 µg/mL (≈ 0.121 µM); in the assay on Streptococcus pneumoniae it was 0.03 µg/mL (≈ 0.0607 µM). Moreover, the MIC was found to be 8 µg/mL (≈ 16.2 µM) in the assay on Enterobacter cloacae [6]; 0.03 µg/mL (≈ 0.0607 µM) in the assay on Streptococcus pyogenes; 32 µg/mL (≈ 64.7 µM) in the assay on Pseudomonas aeruginosa [7]; 4 µg/mL (≈ 8.09 µM) in the assay with Staphylococcus aureus [8]; 0.06 µg/mL (≈ 0.121 µM) with Klebsiella pneumoniae [9]; 32 µg/mL (≈ 64.7 µM) in the assay on Enterococcus faecium. Besides, the MIC in the assay with Pseudomonas aeruginosa [10] is 16 µg/mL (≈ 32.4 µM); with Serratia marcescens, 0.25 µg/mL (≈ 0.505 µM).
`CO/N=C(\C(=O)N[C@@H]1C(=O)N2C(C(=O)[O-])=C(C[n+]3ccc4cnccc4c3)CS[C@H]12)c1csc(N)n1`: the MIC in the assay with Klebsiella pneumoniae [1] was 2 µg/mL (≈ 3.81 µM); with Enterobacter cloacae [2], 0.03 µg/mL (≈ 0.0571 µM); in the assay on Escherichia coli [3] it was < 0.008 µg/mL; in the assay on Staphylococcus aureus [4], 1 µg/mL (≈ 1.9 µM); in the assay on Escherichia coli [5], < 0.008 µg/mL; with Streptococcus pneumoniae, < 0.008 µg/mL. The MIC was 2 µg/mL (≈ 3.81 µM) in the assay on Enterobacter cloacae [6]; < 0.008 µg/mL with Streptococcus pyogenes; 2 µg/mL (≈ 3.81 µM) in the assay with Pseudomonas aeruginosa [7]; 1 µg/mL (≈ 1.9 µM) with Staphylococcus aureus [8]; < 0.008 µg/mL in the assay with Klebsiella pneumoniae [9]; 32 µg/mL (≈ 60.9 µM) with Enterococcus faecium. For the same compound, the values for the MIC in the assay on Pseudomonas aeruginosa [10] and in the assay on Serratia marcescens were 2 µg/mL (≈ 3.81 µM) and 0.03 µg/mL (≈ 0.0571 µM), respectively.
Turning to `C=Cc1sc[n+](CC2=C(C(=O)[O-])N3C(=O)[C@@H](NC(=O)/C(=N\OC)c4csc(N)n4)[C@H]3SC2)c1C`, the MIC came to 4 µg/mL (≈ 7.68 µM) with Klebsiella pneumoniae [1]; 0.25 µg/mL (≈ 0.48 µM) in the assay with Enterobacter cloacae [2]; 0.03 µg/mL (≈ 0.0576 µM) in the assay on Escherichia coli [3]; 2 µg/mL (≈ 3.84 µM) with Staphylococcus aureus [4]; 0.06 µg/mL (≈ 0.115 µM) in the assay on Escherichia coli [5]; 0.06 µg/mL (≈ 0.115 µM) with Streptococcus pneumoniae. The MIC with Enterobacter cloacae [6] was 4 µg/mL (≈ 7.68 µM); with Streptococcus pyogenes it was 0.03 µg/mL (≈ 0.0576 µM); in the assay on Pseudomonas aeruginosa [7], 32 µg/mL (≈ 61.5 µM); with Staphylococcus aureus [8], 4 µg/mL (≈ 7.68 µM); in the assay with Klebsiella pneumoniae [9] it was 0.06 µg/mL (≈ 0.115 µM); in the assay on Enterococcus faecium it was 32 µg/mL (≈ 61.5 µM). Also, the MIC in the assay on Pseudomonas aeruginosa [10] is 16 µg/mL (≈ 30.7 µM); in the assay on Serratia marcescens, 0.25 µg/mL (≈ 0.48 µM).
For `CO/N=C(\C(=O)N[C@@H]1C(=O)N2C(C(=O)[O-])=C(C[n+]3ccc4scc(C(=O)O)c4c3)CS[C@H]12)c1csc(N)n1`, the MIC in the assay with Klebsiella pneumoniae [1] came out at 4 µg/mL (≈ 6.96 µM); with Enterobacter cloacae [2] it was 0.125 µg/mL (≈ 0.218 µM); with Escherichia coli [3], 0.06 µg/mL (≈ 0.104 µM); in the assay on Staphylococcus aureus [4] it was 2 µg/mL (≈ 3.48 µM); with Escherichia coli [5], 0.015 µg/mL (≈ 0.0261 µM); in the assay on Streptococcus pneumoniae, 0.015 µg/mL (≈ 0.0261 µM). Besides, the MIC is 32 µg/mL (≈ 55.7 µM) in the assay on Enterobacter cloacae [6]; 0.03 µg/mL (≈ 0.0522 µM) in the assay with Streptococcus pyogenes; 16 µg/mL (≈ 27.8 µM) with Pseudomonas aeruginosa [7]; 16 µg/mL (≈ 27.8 µM) with Staphylococcus aureus [8]; 0.015 µg/mL (≈ 0.0261 µM) in the assay on Klebsiella pneumoniae [9]; > 128 µg/mL in the assay on Enterococcus faecium. Besides, the MIC was determined as 4 µg/mL (≈ 6.96 µM) in the assay on Pseudomonas aeruginosa [10] and 0.03 µg/mL (≈ 0.0522 µM) with Serratia marcescens.
Regarding `CO/N=C(\C(=O)N[C@@H]1C(=O)N2C(C(=O)[O-])=C(C[n+]3csc4c3CCCC4)CS[C@H]12)c1csc(N)n1`, the MIC with Klebsiella pneumoniae [1] worked out at 2 µg/mL (≈ 3.74 µM); in the assay with Enterobacter cloacae [2], 0.125 µg/mL (≈ 0.234 µM); with Escherichia coli [3], 0.03 µg/mL (≈ 0.0561 µM); in the assay on Staphylococcus aureus [4], 1 µg/mL (≈ 1.87 µM); with Escherichia coli [5] it was 0.06 µg/mL (≈ 0.112 µM); in the assay with Streptococcus pneumoniae, 0.03 µg/mL (≈ 0.0561 µM). Moreover, the MIC with Enterobacter cloacae [6] worked out at 1 µg/mL (≈ 1.87 µM); in the assay with Streptococcus pyogenes, 0.03 µg/mL (≈ 0.0561 µM); in the assay with Pseudomonas aeruginosa [7] it was 16 µg/mL (≈ 29.9 µM); in the assay on Staphylococcus aureus [8] it was 2 µg/mL (≈ 3.74 µM); in the assay with Klebsiella pneumoniae [9], 0.03 µg/mL (≈ 0.0561 µM); in the assay with Enterococcus faecium it was 16 µg/mL (≈ 29.9 µM). The MIC in the assay with Pseudomonas aeruginosa [10] is 4 µg/mL (≈ 7.48 µM); in the assay with Serratia marcescens, 0.125 µg/mL (≈ 0.234 µM).
Regarding `CO/N=C(\C(=O)N[C@@H]1C(=O)N2C(C(=O)[O-])=C(C[n+]3cccc4c(O)cccc43)CS[C@H]12)c1csc(N)n1`, the MIC in the assay with Klebsiella pneumoniae [1] was 8 µg/mL (≈ 14.8 µM); in the assay on Enterobacter cloacae [2], 0.5 µg/mL (≈ 0.925 µM); in the assay on Escherichia coli [3], 0.06 µg/mL (≈ 0.111 µM); in the assay with Staphylococcus aureus [4], 2 µg/mL (≈ 3.7 µM); in the assay with Escherichia coli [5] it was 0.03 µg/mL (≈ 0.0555 µM); with Streptococcus pneumoniae it was 0.03 µg/mL (≈ 0.0555 µM). The MIC was 32 µg/mL (≈ 59.2 µM) with Enterobacter cloacae [6]; 0.015 µg/mL (≈ 0.0277 µM) in the assay on Streptococcus pyogenes; 8 µg/mL (≈ 14.8 µM) in the assay on Pseudomonas aeruginosa [7]; 2 µg/mL (≈ 3.7 µM) in the assay on Staphylococcus aureus [8]; 0.03 µg/mL (≈ 0.0555 µM) in the assay on Klebsiella pneumoniae [9]; 128 µg/mL (≈ 237 µM) in the assay with Enterococcus faecium. Besides, the MIC turned out to be 8 µg/mL (≈ 14.8 µM) with Pseudomonas aeruginosa [10] and 0.5 µg/mL (≈ 0.925 µM) with Serratia marcescens.
For `CO/N=C(\C(=O)N[C@@H]1C(=O)N2C(C(=O)[O-])=C(C[n+]3cccc4cc[nH]c43)CS[C@H]12)c1csc(N)n1`, the MIC in the assay with Klebsiella pneumoniae [1] is 64 µg/mL (≈ 125 µM); in the assay on Enterobacter cloacae [2] it was 2 µg/mL (≈ 3.89 µM); with Escherichia coli [3] it was 0.125 µg/mL (≈ 0.243 µM); in the assay on Staphylococcus aureus [4] it was 1 µg/mL (≈ 1.95 µM); in the assay on Escherichia coli [5], 0.5 µg/mL (≈ 0.974 µM); with Streptococcus pneumoniae, 0.015 µg/mL (≈ 0.0292 µM). Besides, the MIC was 32 µg/mL (≈ 62.3 µM) in the assay on Enterobacter cloacae [6]; < 0.008 µg/mL with Streptococcus pyogenes; 64 µg/mL (≈ 125 µM) with Pseudomonas aeruginosa [7]; 8 µg/mL (≈ 15.6 µM) in the assay with Staphylococcus aureus [8]; 0.06 µg/mL (≈ 0.117 µM) in the assay with Klebsiella pneumoniae [9]; > 128 µg/mL in the assay with Enterococcus faecium. Besides, the MIC with Pseudomonas aeruginosa [10] is 32 µg/mL (≈ 62.3 µM); in the assay on Serratia marcescens, 0.5 µg/mL (≈ 0.974 µM).
With `CO/N=C(\C(=O)N[C@@H]1C(=O)N2C(C(=O)[O-])=C(C[n+]3csc(CCOC=O)c3C)CS[C@H]12)c1csc(N)n1`, the MIC came to 4 µg/mL (≈ 7.06 µM) in the assay with Klebsiella pneumoniae [1]; 0.06 µg/mL (≈ 0.106 µM) in the assay on Enterobacter cloacae [2]; 0.03 µg/mL (≈ 0.0529 µM) with Escherichia coli [3]; 1 µg/mL (≈ 1.76 µM) in the assay on Staphylococcus aureus [4]; 0.03 µg/mL (≈ 0.0529 µM) in the assay with Escherichia coli [5]; 0.015 µg/mL (≈ 0.0265 µM) in the assay with Streptococcus pneumoniae. The MIC stood at 2 µg/mL (≈ 3.53 µM) with Enterobacter cloacae [6]; 0.015 µg/mL (≈ 0.0265 µM) in the assay with Streptococcus pyogenes; 16 µg/mL (≈ 28.2 µM) in the assay with Pseudomonas aeruginosa [7]; 2 µg/mL (≈ 3.53 µM) with Staphylococcus aureus [8]; 0.015 µg/mL (≈ 0.0265 µM) with Klebsiella pneumoniae [9]; 16 µg/mL (≈ 28.2 µM) in the assay on Enterococcus faecium. The MIC with Pseudomonas aeruginosa [10] was found to be 8 µg/mL (≈ 14.1 µM); with Serratia marcescens it was 0.06 µg/mL (≈ 0.106 µM).
